US20240228486A1, “SULFONE- AND SULFOXIMINE-BASED SELECTIVE PARP1 INHIBITORS” (Enliven Inc., priority 2022, published 2024)

Assays:
PARP1 = PARP1 (Homo sapiens (Human), UniProt P09874); assay: PARP1 FP Assay; assay type: binding; settings: PARP1 fluorescence polarization probe assay, 4 hours at room temperature
Description: Compounds were dissolved and 4-fold serially diluted in DMSO. Compounds were transferred by an Echo to the assay plate to reach final concentrations ranging from 10 μM to 0.01 nM.
Assay buffer was composed of 50 mM Tris pH 8.0, 10 mM MgCl2, 150 mM NaCl and 0.001% Triton X100.

PARP2 = PARP2 (Homo sapiens (Human), UniProt Q9UGN5); assay: PARP2 FP Assay; assay type: binding; settings: PARP2 fluorescence polarization probe assay, 4 hours at room temperature
[1] = tested on: PARylation level in MDA-MB-436; assay: PARPylation MSD Assay on MDA-MB-436; assay type: cell-based; settings: Homo sapiens; MDA-MB-436 cells, 4 hours incubation with compound, electrochemiluminescent (MSD) detection of PARylation
Description: Compounds were dissolved and 4-fold serially diluted in DMSO.
Plates were incubated for 1 hour at room temperature, with shaking. […] Plates were incubated for 1 hour at room temperature, with shaking.

Sequence of PARP1 (P09874 whole entry): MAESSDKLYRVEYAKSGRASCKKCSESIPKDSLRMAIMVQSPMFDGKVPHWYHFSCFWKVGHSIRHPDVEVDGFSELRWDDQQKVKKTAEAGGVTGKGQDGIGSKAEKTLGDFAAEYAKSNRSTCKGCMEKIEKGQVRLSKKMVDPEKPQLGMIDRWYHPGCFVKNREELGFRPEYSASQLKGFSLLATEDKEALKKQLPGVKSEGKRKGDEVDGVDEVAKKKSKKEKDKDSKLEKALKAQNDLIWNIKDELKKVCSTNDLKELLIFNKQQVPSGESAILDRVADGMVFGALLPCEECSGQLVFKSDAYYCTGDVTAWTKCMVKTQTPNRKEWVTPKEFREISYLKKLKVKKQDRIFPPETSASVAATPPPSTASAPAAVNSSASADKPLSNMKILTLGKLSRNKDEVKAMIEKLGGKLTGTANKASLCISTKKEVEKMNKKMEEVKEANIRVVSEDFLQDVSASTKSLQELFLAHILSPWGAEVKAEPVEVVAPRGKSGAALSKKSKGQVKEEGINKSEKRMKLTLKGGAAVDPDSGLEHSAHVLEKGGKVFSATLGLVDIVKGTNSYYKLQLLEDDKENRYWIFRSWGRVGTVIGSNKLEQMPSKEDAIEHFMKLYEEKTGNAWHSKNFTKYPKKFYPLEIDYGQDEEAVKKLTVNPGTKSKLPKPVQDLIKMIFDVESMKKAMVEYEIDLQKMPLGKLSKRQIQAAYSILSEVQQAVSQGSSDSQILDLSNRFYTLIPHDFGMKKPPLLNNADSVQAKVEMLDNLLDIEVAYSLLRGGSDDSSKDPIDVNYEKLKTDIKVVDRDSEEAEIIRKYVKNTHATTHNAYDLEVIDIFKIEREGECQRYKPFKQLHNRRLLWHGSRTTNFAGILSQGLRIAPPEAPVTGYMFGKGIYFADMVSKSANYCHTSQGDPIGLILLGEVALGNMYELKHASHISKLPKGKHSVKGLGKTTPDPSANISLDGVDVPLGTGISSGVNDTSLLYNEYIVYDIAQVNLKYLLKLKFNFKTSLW
Sequence of PARP2 (Q9UGN5 whole entry): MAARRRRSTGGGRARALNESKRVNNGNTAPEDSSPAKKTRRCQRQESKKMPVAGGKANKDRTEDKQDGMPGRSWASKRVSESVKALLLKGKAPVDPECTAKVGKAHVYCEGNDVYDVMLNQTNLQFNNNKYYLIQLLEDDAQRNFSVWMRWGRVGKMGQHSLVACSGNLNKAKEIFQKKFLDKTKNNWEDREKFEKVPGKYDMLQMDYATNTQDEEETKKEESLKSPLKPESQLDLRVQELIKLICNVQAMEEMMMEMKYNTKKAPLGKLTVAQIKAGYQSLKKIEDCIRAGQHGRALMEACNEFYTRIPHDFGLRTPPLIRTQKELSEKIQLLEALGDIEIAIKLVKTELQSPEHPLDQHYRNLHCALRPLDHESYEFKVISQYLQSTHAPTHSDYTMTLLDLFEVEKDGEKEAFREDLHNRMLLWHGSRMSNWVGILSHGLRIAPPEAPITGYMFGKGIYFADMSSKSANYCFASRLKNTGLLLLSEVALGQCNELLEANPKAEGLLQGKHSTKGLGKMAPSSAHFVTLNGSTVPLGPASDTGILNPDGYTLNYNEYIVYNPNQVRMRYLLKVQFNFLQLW

IC50 (PARP1) [nM] | IC50 (PARP2) [nM] | IC50 [1] [nM] | SMILES
6.89 | > 10000 | 10.8 | CCc1cc2ncc([S@](=N)(=O)C3CCN(c4ccc(C(=O)NC)nc4)CC3)cc2[nH]c1=O (single isomer, unassigned) [Compound 2.7]
8.66 | > 10000 | 0.515 | CCc1cc2ncc([S@@](=N)(=O)C3CCN(c4ccc(C(=O)NC)nc4)CC3)cc2[nH]c1=O (single isomer, unassigned) [Compound 2.8]
> 10000 | > 10000 | > 1000 | CCc1cc2ncc(S(=O)(=O)N3CCN(c4ccc(F)cc4F)CC3)cc2[nH]c1=O [Compound 2.6, 7-((4-(2,4-difluorophenyl)piperazin-1-yl)sulfonyl)-3-ethyl-1,5-naphthyridin-2(1H)-one]
